In one data set the test system is RS4;11 cells. Particulars: cited from earlier work.
The next data set concerns CLL. Particulars: average, read-out: average EC50, apoptosis in CLL; cited from earlier work.
In another data set the target is Mcl-1 (Homo sapiens (Human), UniProt Q07820). The following applies: cited from earlier work.
The next data set concerns RS4; 11 xenografts. The following applies: single dose of 100 mg/kg; cited from earlier work.
In data set [1] the test system is small-cell lung cancer xenograft. Particulars: oral administration, alone; cited from earlier work.
Another data set has as its system circulating platelets. Particulars: clinical trial, single agent; cited from earlier work.
The subject of another data set is SCLC H146 cell line. Particulars: read-out: IC50 against SCLC H146 cell line; cited from earlier work.
In data set [2] the test system is acute lymphoblastic leukemia xenograft. Particulars: oral administration, alone; cited from earlier work.
The next data set deals with Bcl-w (Homo sapiens (Human), UniProt Q92843). The following applies: cited from earlier work.
The subject of the next data set is H345 xenograft. The following applies: 100 mg/kg/day, H345 xenograft model; cited from earlier work.
The conditions of data set [3]: in vivo; cited from earlier work.
For data set [4] the following is noted: cited from earlier work.
A further data set addresses BCL-2 (Homo sapiens (Human), UniProt P10415). Description: BCL-2 competition binding (fluorescence polarization) assay. The following applies: fluorescein-labeled BH3 peptide 15 nM, purified BCL-2 protein 30 nM, 3 hours incubation at room temperature; read-out: BCL2 IC50. On the procedure: Biological Example 1: BCL-2 Competition Binding (Fluorescence Polarization) Assay
The fluorescence-labeled 23 amino acid peptide BH3 was purchased from CalBiochem ([…]). […] This binding assay was performed in 96-well plate and with each assay contained 15 and 30 nM of labeled peptide and purified BCL-2 protein (purchased from R&D Systems, Inc). The assay buffer contained 20 mM Hepes (pH 7.0), 50 mM KCl, 5 mM MgCl2, 20 mM Na2MoO4, 0.1 mg/ml Bovine Gamma Globulin and 0.01% NP40. Compounds were diluted in DMSO and added to the final assay with concentration range from 20 μM to 2 nM. The polarization degree (mP) value was determined by BioTek Synergy II with background subtraction after 3 hours of incubation at room temperature. IC50 was calculated using Prism software with sigmoidal dose-response curve fitting. ABT-737 was used as reference compound. Such assays, carried out with a range of doses of test compounds, allowed the determination of an approximate IC50 value.

The subject of data set [5] is BCL-2-dependent acute lymphoblastic leukemia (ALL) cell line RS4;11. Description: In vitro anti-proliferation assay (ATPlite luminescence) in RS4;11. The data set is classed as cell-based. The following applies: RS4;11 cells, about 72 hours, medium with 5% FBS or 10% normal human serum. On the procedure: Cell antiproliferation was assayed by PerkinElmer ATPlite™ Luminescence Assay System. Briefly, the various test cancer cell lines were plated at a density of about 1×10^4 cells per well in Costar 96-well plates, and were incubated with different concentrations of compounds for about 72 hours in medium supplemented with 5% FBS or 10% normal human serum (NHS). One lyophilized substrate solution vial was then reconstituted by adding 5 mL of substrate buffer solution, and was agitated gently until the solution was homogeneous. About 50 μL of mammalian cell lysis solution was added to 100 μL of cell suspension per well of a microplate, and the plate was shaken for about five minutes in an orbital shaker at 700 rpm. This procedure was used to lyse the cells and to stabilize the ATP. Next, 50 μL substrate solution was added to the wells and microplate was shaken for five minutes in an orbital shaker at 700 rpm. Finally, the luminescence was measured by a PerkinElmer TopCount® Microplate Scintillation Counter. Such assays, carried out with a range of doses of test compounds, allowed the determination of the cellular anti-antiproliferative IC50 of the compounds of the present invention.

Chain of BCL-2 (P10415 whole entry): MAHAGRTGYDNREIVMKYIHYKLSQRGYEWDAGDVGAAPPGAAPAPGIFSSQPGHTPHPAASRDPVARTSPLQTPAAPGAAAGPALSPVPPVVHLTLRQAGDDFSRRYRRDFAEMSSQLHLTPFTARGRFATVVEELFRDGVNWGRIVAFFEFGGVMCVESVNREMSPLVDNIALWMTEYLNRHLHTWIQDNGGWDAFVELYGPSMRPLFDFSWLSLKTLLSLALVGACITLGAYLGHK
Chain of Bcl-w (Q92843 whole entry): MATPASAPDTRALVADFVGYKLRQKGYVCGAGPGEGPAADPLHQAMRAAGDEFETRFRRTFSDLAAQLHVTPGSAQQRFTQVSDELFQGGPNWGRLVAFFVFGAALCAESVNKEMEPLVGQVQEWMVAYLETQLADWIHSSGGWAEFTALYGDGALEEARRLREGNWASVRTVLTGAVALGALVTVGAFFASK
Chain of Mcl-1 (Q07820 whole entry): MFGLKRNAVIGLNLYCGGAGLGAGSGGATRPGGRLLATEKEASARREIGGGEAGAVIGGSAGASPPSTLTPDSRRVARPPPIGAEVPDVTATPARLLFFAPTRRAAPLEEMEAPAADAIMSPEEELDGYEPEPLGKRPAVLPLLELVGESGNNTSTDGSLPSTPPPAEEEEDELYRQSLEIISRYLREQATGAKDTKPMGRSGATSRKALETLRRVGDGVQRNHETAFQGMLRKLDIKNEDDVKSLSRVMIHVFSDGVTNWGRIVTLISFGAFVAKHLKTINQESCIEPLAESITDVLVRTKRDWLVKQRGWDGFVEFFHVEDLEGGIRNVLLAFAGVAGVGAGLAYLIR

As for `CC1(C)CCC(CN2CCN(c3ccc(C(=O)NS(=O)(=O)c4ccc(NCC5CCOCC5)c([N+](=O)[O-])c4)c(Oc4cnc5[nH]ccc5c4)c3)CC2)=C(c2ccc(Cl)cc2)C1` [ABT-199], the 50% effective concentration (EC50) with RS4;11 cells is 8 nM. In addition, the EC50 with CLL was 3 nM. In addition, the “activity to Mcl-1” value on Mcl-1 is reported as “no activity”. Moreover, in the data set on RS4; 11 xenografts, the “maximal tumor growth inhibition” value is reported as 95% and the tumor growth delay was 152%.

On to `CC1(C)CCC(c2ccc(Cl)cc2)=C(CN2CCN(c3ccc(C(=O)NS(=O)(=O)c4ccc(N[C@H](CCN5CCOCC5)CSc5ccccc5)c(S(=O)(=O)C(F)(F)F)c4)cc3)CC2)C1` [ABT-263], for which the “tumor response, small-cell lung cancer xenograft models” value in data set [1] is listed as “complete tumor regressions”. In the data set on circulating platelets, the “number of circulating platelets” value is given as “rapid, concentration-dependent decrease”. Moreover, the IC50 with SCLC H146 cell line is 110 nM. For the same compound, in [2], the “tumor response, acute lymphoblastic leukemia xenograft models” value is “complete tumor regressions”. For the same compound, the Ki at Bcl-w was at most 1 nM. In addition, in the data set on H345 xenograft, the TGI is listed as 80% and the “treated tumors indicating at least a 50% reduction in tumor volume” value is recorded as 20%.

With `CN(C)CC[C@H](CSc1ccccc1)Nc1ccc(S(=O)(=O)NC(=O)c2ccc(N3CCN(Cc4ccccc4-c4ccc(Cl)cc4)CC3)cc2)cc1[N+](=O)[O-]` [ABT-737], the oral bioavailability entry in [3] is given as “not orally bioavailable”. Besides, in [4], the aqueous solubility result is on record as “low aqueous solubility”.

Consider `O=C(NS(=O)(=O)c1ccc(NC[C@H]2COCCO2)c([N+](=O)[O-])c1)c1ccc(N2CCN(CC3=C(c4ccc(Cl)cc4)CCCC3)CC2)cc1N1CCCOc2nc3[nH]ccc3cc21` [Example 74, 4-(4-[[2-(4-chlorophenyl)cyclohex-1-en-1-yl]methyl]piperazin-1-yl)-N-(4-[[(2S)-1,4-dioxan-2-ylmethyl]amino]-3-nitrobenzenesulfonyl)-2-[14-oxa-2,4,10-triazatricyclo[7.5.0.0^[3,7]]tetradeca-1(9),2,5,7-tetraen-10-yl]benzamide], for which the values for the concentration for half-maximal inhibition (IC50) (at BCL-2; in [5]) were 0.3 nM and 1.7 nM, respectively.

With `O=C(NS(=O)(=O)c1ccc(NC[C@H]2COCCO2)c([N+](=O)[O-])c1)c1ccc(N2CCN(CC3=C(c4ccc(Cl)cc4)CCCCC3)CC2)cc1N1CCCOc2nc3[nH]ccc3cc21` [Example 75, 4-(4-[[2-(4-chlorophenyl)cyclohept-1-en-1-yl]methyl]piperazin-1-yl)-N-(4-[[(2S)-1,4-dioxan-2-ylmethyl]amino]-3-nitrobenzenesulfonyl)-2-[14-oxa-2,4,10-triazatricyclo[7.5.0.0^[3,7]]tetradeca-1(9),2,5,7-tetraen-10-yl]benzamide], the half-maximal inhibitory concentration (IC50) turned out to be 0.6 nM at BCL-2 and 2.7 nM in data set [5].

Take `COC1(C)CCC(c2ccc(Cl)cc2)=C(CN2CCN(c3ccc(C(=O)NS(=O)(=O)c4ccc(NC[C@H]5COCCO5)c([N+](=O)[O-])c4)c(N4CCCOc5nc6[nH]ccc6cc54)c3)CC2)C1` (stereo partly drawn) [Example 77, 4-(4-[[2-(4-chlorophenyl)-5-methoxy-5-methylcyclohex-1-en-1-yl]methyl]piperazin-1-yl)-N-(4-[[(2S)-1,4-dioxan-2-ylmethyl]amino]-3-nitrobenzenesulfonyl)-2-[14-oxa-2,4,10-triazatricyclo[7.5.0.0[3,7]]tetradeca-1(9),2,5,7-tetraen-10-yl]benzamide]: the IC50 on BCL-2 stood at 0.08 nM; in [5], 0.8 nM.

Source of the values: patent US12220419B2, “BCL-2 inhibitors” (Newave Pharmaceutical Inc., priority 2018, dated 2025).
